Series [1] relates to lymphoma cell line G3. As to the kind of experiment: Cell growth assay (resazurin fluorescence) on CHOP-resistant G3 NHL cells. It counts as cell-based, human. The following applies: for IC50: Homo sapiens. The method in brief: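 CHOP-resistant G3 NHL cells grown five days in RPMI medium were counted by haemocytometer and set to 625,000 cells/ml. They were then added to plates holding test drug, first dissolved in 100% DMSO and diluted in 0.1M PBS to 0.5% final DMSO. Plates incubated 96 hours at 37° C. and 5% CO2. Resazurin at 20 μg/ml was added for a further 24 hours, and plates were read on a BMG Polarstar at 573-605.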
On the technique in general: The colour change of resazurin is a common sign of viable cells or microbes.

For series [2], the system named is multi-drug resistant sarcoma cell line MES-SA-Dx5. The series can be described thus: Cell growth assay on MES-SA-Dx5 cells. It counts as cell-based. To be noted: MES-SA-Dx5, uterus sarcoma.
The subject of series [3] is multi-drug-resistant breast cancer cell line MDA-MB-231. The series can be described thus: Cell growth assay on MDA-MB-231 cells. It counts as cell-based. To be noted: MDA-MB-231, breast carcinoma. On the procedure:
Compositions were tested on CHOP-resistant G3 NHL cells that had been cultivated in RPMI medium for five days. Prior to assay, the cells were counted by haemocytometer and cell concentration standardized to 625,000 cells/ml. Test drugs were solubilized in 100% DMSO and then diluted to final assay concentration with 0.1M phosphate buffered saline (PBS) and a final DMSO concentration of 0.5%. Cells were added to assay plates containing the test drugs (rifabutin+148 ng/ml, 74 ng/ml, 37 ng/ml, or 0 ng/ml doxorubicin) and allowed to incubate for 96 hours at 37° C. and 5% CO2. The metabolic dye rezasurin was added to the wells of the assay plate at a final concentration of 20 μg/ml and the plates were incubated for an additional 24 hours. The plates were then read in a BMG Polarstar plate reader at wavelength (573-605) and the data plotted as OD versus increasing dilutions (i.e. decreasing total amounts) of rifabutin derivative concentration.
In these experiments, the following cell lines were used: CHOP-resistant NHL cell line G3, CHOP-sensitive NHL cell line CRL2631, the multi-drug resistant sarcoma cell line MES-SA-Dx5; multi-drug-resistant breast cancer cell line MDA-MB-231, multi-drug resistant ovarian carcinoma cell line SK-OV3, multi-drug resistant ovarian cancer cell line NCI/ADR-RES, drug-sensitive ovarian cancer cell line OVCAR-5, and multi-drug resistant ovarian cancer cell line OVCAR-3.
Additional cell lines used include: ovarian cancer OVCAR-8, T lymphoblastoid leukemia MOLT-4, dexamethasone-resistant multiple myeloma MM.1R, myeloid leukemia cells HL-60, osteosarcoma cells U-2 OS, and myeloma RPMI 8226.

The test system of series [4] is multi-drug resistant ovarian carcinoma cell line SK-OV3. As to the kind of experiment: Cell growth assay on SK-OV3 cells. The following applies: SK-OV3, ovarian carcinoma. It counts as cell-based, human.
The subject of series [5] is lymphoma aspirate from a dog with CHOP-resistant lymphoma. As to the kind of experiment: CHOP responsiveness of dog lymphoma aspirate (resazurin). It counts as cell-based. On the procedure:
A single lymphoma aspirate from a dog with CHOP-resistant lymphoma was tested for responsiveness to CHOP in the presence or absence of rifabutin. CHOP-responsiveness was measured by a decrease in fluorescence signal generated by resazurin.

Series [6] deals with human ovarian cancer cell line SK-OV-3. The series can be described thus: SK-OV-3 xenograft efficacy study in SCID mice. It counts as in vivo. On the procedure: In a fifth efficacy study, we generated xenografts of the human ovarian cancer cell line SK-OV-3, a cell line considered doxorubicin-resistant, by bilateral subcutaneous (s.c.) injection of 1×10^7 tumor cells to establish localized tumors in 6-8 week old female SCID mice. Using rifabutin co-administered with DOX, in vivo efficacy was assessed. […] Cycles of Dox or Dox+rifabutin were given once a week for 4 cycles. This cyclical dosing scheme of mouse models has precedent in the literature and is intended to mimic the cycles of DOXIL® (Centocor Ortho Biotech Products, LP, Raritan, N.J.) given in the clinic. Rifabutin was administered on the day of each DOX treatment and by gavage. Mouse body weight and tumor size were monitored.

Series [7] concerns G3 cells. As to the kind of experiment: Collagen invasion 3D assay, G3 cells. To be noted: 10 uM Rifabutin in collagen matrix, 24 hours. It counts as cell-based, human. On the procedure:
The effects of rifabutin on cell invasion was assessed in a collagen invasion 3D assay. Increased interest in the use of 3D culture systems has been motivated by accumulating evidence that 3D models better reflect the microenvironment of tumors and metastases and more accurately predict therapeutic response in vivo compared with conventional 2D assays. A collagen invasion 3D assay allows the rapid and quantitative assessment of invasiveness and a means to screen for drugs which alter the invasive phenotype of tumor cells.
The CHOP-resistant G3 cell line is much more invasive in a collage invasion 3D assay than its CHOP-sensitive parent cell line (CRL2631). Collagen matrices (1 mg/ml) were prepared as previously described in Su, S. C., et al., Molecular profile of endothelial invasion of three-dimensional collagen matrices: insights into angiogenic sprout induction in wound healing. Am. J. Physiol. […] Cell invasion density was quantified by counting fixed cultures under transmitted light using an Olympus CK2 inverted microscope equipped with eyepieces displaying a 10×10 ocular grid. For each condition, four random fields were selected and the number of invading cells per high power field (HPF) was counted manually at 10× magnification, corresponding to 1 mm^2 area. […]

In series [8] the test system is G3 cells. The series can be described thus: Modified Boyden chamber invasion assay, G3 cells. To be noted: 10 μM rifabutin 24 hours; DMSO 170,374. It counts as cell-based, human. On the procedure:
(§1) A modified Boyden chamber assay was used as an independent method to evaluate rifabutin's ability to suppress invasion/metastasis. […] Cell invasion was assessed with a Chemicon QCM Collagen Invasion Assay (Millipore). The assay is a 96-well plate assay wherein each well is equipped with a suspended insert. Inserts contain an 8-micron membrane coated with a thin layer of polymerized collagen. Invading cells migrate through the collagen layer and attach to the bottom of the membrane. Cells were detached from the membrane and lysed prior to detection via CyQuant dye. Fluorescence intensity is proportional to number of invading cells. […] In CRL2631 cells RLU decreases from 39,356 to 27,432 RLU in the presence of rifabutin (p<0.05).

Series [9] deals with CRL2631 cells. The series can be described thus: Modified Boyden chamber invasion assay, CRL2631 cells. It is filed as cell-based, human. To be noted: 10 μM rifabutin 24 hours; DMSO 39,356. On the procedure: as §1

Where “and” joins values, the source holds several entries; their conditions need not be identical. Equal entries are not always repeated. Where two headings read alike, the source gives them in different places.

As to `CO[C@H]1/C=C/O[C@@]2(C)Oc3c(C)c(O)c4c(c3C2=O)C2=NC3(CCN(CC(C)C)CC3)NC2=C(NC(=O)/C(C)=C\C=C\[C@H](C)[C@H](O)[C@@H](C)[C@@H](O)[C@@H](C)[C@H](OC(C)=O)[C@@H]1C)C4=O` [Rifabutin, rifabutin], the “Magnitude of potentiation in combination with doxorubicin” value in [1] (G3, lymphoma B cells) was “+++ (potentiation greater than 5 fold increase)”; in [2], “++ (potentiation between 2.1 to 5 fold increase)”; in [3] it was “+++ (potentiation greater than 5 fold increase)”; in [4], “+ (potentiation between 1.2 to 2.0 fold increase)”. The IC50 in [1] (analog alone, lymphoma cell line G3, read-out: IC50) was greater than 64 µM; in series [1] (with 1 μM doxorubicin, lymphoma cell line G3, read-out: IC50 (μM) with doxorubicin (1 μM)), 0.25 µM. The “Fold increase in potency over DOX alone” value in series [1] (lymphoma cell line G3) is 9.4 fold. In addition, in [1] (rifabutin alone, G3), the “cell growth in the absence of CHOP” value is listed as “did not affect the growth”. For the same molecule, in series [5] (CHOP with 5 μM rifabutin), the “CHOP dose giving significant growth inhibition” value was 320 ng/mL and 640 ng/mL. Moreover, in series [5] (rifabutin alone), the “cell viability in the absence of CHOP” value is “no effect on cell viability”. In addition, the average tumor volume in series [6] (after 19 days treatment, DOX 3.3 mg/kg i.v. + rifabutin 25 mg/kg oral weekly) is reported as 348 mm^3. Besides, the “reduction in tumor size versus DOX-only” value in series [6] (after 19 days, DOX 3.3 mg/kg i.v. + rifabutin 25 mg/kg oral) was found to be 40%. In addition, in series [7], the reduction of invasion result is on record as “up to 30%”. In addition, the “relative fluorescence (invading cells)” value was 114,395 RLU in [8] and 27,432 RLU in series [9].

For orientation: IC50 means the concentration at which inhibition is half-maximal.

The values are drawn from patent US20150017673A1, “COMPOSITIONS AND METHODS FOR DRUG-SENSITIZATION OR INHIBITION OF A CANCER CELL” (priority 2012, published 2015).
